Test results: publication PMC4767141, “Discovery of Potent, Orally Bioavailable, Small-Molecule Inhibitors of WNT Signaling from a Cell-Based Pathway Screen” (Journal of Medicinal Chemistry, 2015)
Several values for one entry are separate records, joined by “and”; a condition that tells them apart may be missing. Equal values may be shown once.

Columns and labels:
JAK2 = target: T1, JAK2 (Homo sapiens, UniProt O60674); experiment: Millipore kinase panel; assay type: biochemical; conditions: read-out: % Control
T1 construct: purchased Millipore KinaseProfiler (kinases); Cerep (receptors and ion channels)

KV channel = experiment: CEREP binding panel; conditions: 10 μM, antagonist radioligand
PLK1 = target: T2, PLK1 (Homo sapiens, UniProt P53350); experiment: Millipore kinase panel; assay type: biochemical; conditions: read-out: % Control
T2 construct: purchased Millipore KinaseProfiler (kinases); Cerep (receptors and ion channels)

TAO1 = target: T3, TAO1 (Homo sapiens, UniProt Q7L7X3); experiment: Millipore kinase panel; assay type: biochemical; conditions: read-out: % Control
T3 construct: purchased Millipore KinaseProfiler (kinases); Cerep (receptors and ion channels)

PI3 KINASE (P110A/P85A) = experiment: Millipore kinase panel; assay type: biochemical; conditions: 1 μM, ATP at Km
5-HT5a (h) = target: T4, 5-HT5a (h) (Homo sapiens, UniProt P47898); experiment: CEREP binding panel; conditions: agonist radioligand, read-out: % Inhibition of Control Specific Binding
T4 construct: purchased Millipore KinaseProfiler (kinases); Cerep (receptors and ion channels)

MAPKAP-K2 = target: T5, MAPKAP-K2 (Homo sapiens, UniProt P49137); experiment: Millipore kinase panel; assay type: biochemical; conditions: read-out: % Control
T5 construct: purchased Millipore KinaseProfiler (kinases); Cerep (receptors and ion channels)

IRR = target: T6, IRR (Homo sapiens, UniProt P14616); experiment: Millipore kinase panel; assay type: biochemical; conditions: read-out: % Control
T6 construct: purchased Millipore KinaseProfiler (kinases); Cerep (receptors and ion channels)

NEK2 = target: T7, NEK2 (Homo sapiens, UniProt P51955); experiment: Millipore kinase panel; assay type: biochemical; conditions: read-out: % Control
T7 construct: purchased Millipore KinaseProfiler (kinases); Cerep (receptors and ion channels)

MARK1 = target: T8, MARK1 (Homo sapiens, UniProt Q9P0L2); experiment: Millipore kinase panel; assay type: biochemical; conditions: read-out: % Control
T8 construct: purchased Millipore KinaseProfiler (kinases); Cerep (receptors and ion channels)

ARK5 = target: T9, ARK5 (Homo sapiens, UniProt O60285); experiment: Millipore kinase panel; assay type: biochemical; conditions: read-out: % Control
T9 construct: purchased Millipore KinaseProfiler (kinases); Cerep (receptors and ion channels)

ABL = target: T10, ABL (Homo sapiens, UniProt P00519); experiment: Millipore kinase panel; assay type: biochemical; conditions: read-out: % Control
T10 construct: purchased Millipore KinaseProfiler (kinases); Cerep (receptors and ion channels)

FGFR3 = target: T11, FGFR3 (Homo sapiens, UniProt P22607); experiment: Millipore kinase panel; assay type: biochemical; conditions: read-out: % Control
T11 construct: purchased Millipore KinaseProfiler (kinases); Cerep (receptors and ion channels)

MC4 (h) = target: T12, MC4 (h) (Homo sapiens, UniProt P32245); experiment: CEREP binding panel; conditions: agonist radioligand, read-out: % Inhibition of Control Specific Binding
T12 construct: purchased Millipore KinaseProfiler (kinases); Cerep (receptors and ion channels)

PDK1 = target: T13, PDK1 (Homo sapiens, UniProt O15530); experiment: Millipore kinase panel; assay type: biochemical; conditions: read-out: % Control
T13 construct: purchased Millipore KinaseProfiler (kinases); Cerep (receptors and ion channels)

BRK = target: T14, BRK (Homo sapiens, UniProt Q13882); experiment: Millipore kinase panel; assay type: biochemical; conditions: read-out: % Control
T14 construct: purchased Millipore KinaseProfiler (kinases); Cerep (receptors and ion channels)
T14 sequence (Q13882 whole entry): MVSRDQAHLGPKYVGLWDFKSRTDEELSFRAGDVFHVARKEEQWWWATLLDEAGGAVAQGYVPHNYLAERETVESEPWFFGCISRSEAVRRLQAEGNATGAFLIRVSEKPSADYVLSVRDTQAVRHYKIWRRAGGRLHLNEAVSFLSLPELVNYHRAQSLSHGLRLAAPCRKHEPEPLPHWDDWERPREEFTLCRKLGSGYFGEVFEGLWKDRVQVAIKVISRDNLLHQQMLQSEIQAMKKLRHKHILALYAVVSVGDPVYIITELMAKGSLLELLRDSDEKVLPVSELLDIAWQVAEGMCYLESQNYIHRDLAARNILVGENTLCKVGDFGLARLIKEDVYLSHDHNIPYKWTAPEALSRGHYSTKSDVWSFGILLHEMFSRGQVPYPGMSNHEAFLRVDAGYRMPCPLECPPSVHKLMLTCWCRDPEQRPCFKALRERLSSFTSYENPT

PKCALPHA = target: T15, PKCALPHA (Homo sapiens, UniProt P17252); experiment: Millipore kinase panel; assay type: biochemical; conditions: read-out: % Control
T15 construct: purchased Millipore KinaseProfiler (kinases); Cerep (receptors and ion channels)

PAK2 = target: T16, PAK2 (Homo sapiens, UniProt Q13177); experiment: Millipore kinase panel; assay type: biochemical; conditions: read-out: % Control
T16 construct: purchased Millipore KinaseProfiler (kinases); Cerep (receptors and ion channels)

GRK6 = target: T17, GRK6 (Homo sapiens, UniProt P43250); experiment: Millipore kinase panel; assay type: biochemical; conditions: read-out: % Control
T17 construct: purchased Millipore KinaseProfiler (kinases); Cerep (receptors and ion channels)

M2 (h) = target: T18, M2 (h) (Homo sapiens, UniProt P08172); experiment: CEREP binding panel; conditions: antagonist radioligand, read-out: % Inhibition of Control Specific Binding
T18 construct: purchased Millipore KinaseProfiler (kinases); Cerep (receptors and ion channels)

CHK1 = target: T19, CHK1 (Homo sapiens, UniProt O14757); experiment: Millipore kinase panel; assay type: biochemical; conditions: read-out: % Control
T19 construct: purchased Millipore KinaseProfiler (kinases); Cerep (receptors and ion channels)

IRAK4 = target: T20, IRAK4 (Homo sapiens, UniProt Q9NWZ3); experiment: Millipore kinase panel; assay type: biochemical; conditions: read-out: % Control
T20 construct: purchased Millipore KinaseProfiler (kinases); Cerep (receptors and ion channels)
T20 sequence (Q9NWZ3 whole entry): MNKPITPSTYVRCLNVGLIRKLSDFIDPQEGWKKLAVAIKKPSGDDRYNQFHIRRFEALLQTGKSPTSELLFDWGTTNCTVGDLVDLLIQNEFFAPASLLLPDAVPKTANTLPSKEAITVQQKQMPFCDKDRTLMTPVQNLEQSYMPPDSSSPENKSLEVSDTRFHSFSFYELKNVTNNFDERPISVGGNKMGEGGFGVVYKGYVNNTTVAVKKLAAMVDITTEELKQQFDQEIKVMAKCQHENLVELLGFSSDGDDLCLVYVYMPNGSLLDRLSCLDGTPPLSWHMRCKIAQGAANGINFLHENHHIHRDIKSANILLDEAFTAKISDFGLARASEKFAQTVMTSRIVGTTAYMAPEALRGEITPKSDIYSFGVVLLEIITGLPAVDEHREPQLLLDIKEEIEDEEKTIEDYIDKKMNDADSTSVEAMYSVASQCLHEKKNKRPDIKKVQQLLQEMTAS

EPHB2 = target: T21, EPHB2 (Homo sapiens, UniProt P29323); experiment: Millipore kinase panel; assay type: biochemical; conditions: read-out: % Control
T21 construct: purchased Millipore KinaseProfiler (kinases); Cerep (receptors and ion channels)

BLK = experiment: Millipore kinase panel; assay type: biochemical; conditions: 1 μM, ATP at Km
SGK2 = target: T22, SGK2 (Homo sapiens, UniProt Q9HBY8); experiment: Millipore kinase panel; assay type: biochemical; conditions: read-out: % Control
T22 construct: purchased Millipore KinaseProfiler (kinases); Cerep (receptors and ion channels)

KDR = target: T23, KDR (Homo sapiens, UniProt P35968); experiment: Millipore kinase panel; assay type: biochemical; conditions: read-out: % Control
T23 construct: purchased Millipore KinaseProfiler (kinases); Cerep (receptors and ion channels)

AXL = target: T24, AXL (Homo sapiens, UniProt P30530); experiment: Millipore kinase panel; assay type: biochemical; conditions: read-out: % Control
T24 construct: purchased Millipore KinaseProfiler (kinases); Cerep (receptors and ion channels)

ZIPK = target: T25, ZIPK (Homo sapiens, UniProt O43293); experiment: Millipore kinase panel; assay type: biochemical; conditions: read-out: % Control
T25 construct: purchased Millipore KinaseProfiler (kinases); Cerep (receptors and ion channels)

GAL2 (h) = target: T26, GAL2 (h) (Homo sapiens, UniProt O43603); experiment: CEREP binding panel; conditions: agonist radioligand, read-out: % Inhibition of Control Specific Binding
T26 construct: purchased Millipore KinaseProfiler (kinases); Cerep (receptors and ion channels)

PIM-3 = target: T27, PIM-3 (Homo sapiens, UniProt Q86V86); experiment: Millipore kinase panel; assay type: biochemical; conditions: read-out: % Control
T27 construct: purchased Millipore KinaseProfiler (kinases); Cerep (receptors and ion channels)

CSK = target: T28, CSK (Homo sapiens, UniProt P41240); experiment: Millipore kinase panel; assay type: biochemical; conditions: read-out: % Control
T28 construct: purchased Millipore KinaseProfiler (kinases); Cerep (receptors and ion channels)
T28 sequence (P41240 whole entry): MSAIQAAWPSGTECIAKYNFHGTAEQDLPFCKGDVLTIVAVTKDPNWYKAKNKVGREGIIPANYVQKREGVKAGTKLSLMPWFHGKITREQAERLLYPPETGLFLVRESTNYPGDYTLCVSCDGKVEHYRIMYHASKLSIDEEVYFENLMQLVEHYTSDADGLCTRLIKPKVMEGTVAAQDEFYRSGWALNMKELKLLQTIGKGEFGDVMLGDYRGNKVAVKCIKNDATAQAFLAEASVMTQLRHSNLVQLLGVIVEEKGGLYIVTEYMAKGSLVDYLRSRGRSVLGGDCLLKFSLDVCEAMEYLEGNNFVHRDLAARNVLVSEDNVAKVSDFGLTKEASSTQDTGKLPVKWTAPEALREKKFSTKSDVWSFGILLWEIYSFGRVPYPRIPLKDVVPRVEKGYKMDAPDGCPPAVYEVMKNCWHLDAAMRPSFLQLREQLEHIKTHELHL

IR, ACTIVATED = target: T29, IR, ACTIVATED (Homo sapiens, UniProt P06213); experiment: Millipore kinase panel; assay type: biochemical; conditions: read-out: % Control
T29 construct: purchased Millipore KinaseProfiler (kinases); Cerep (receptors and ion channels)
T29 sequence (P06213 28-1382): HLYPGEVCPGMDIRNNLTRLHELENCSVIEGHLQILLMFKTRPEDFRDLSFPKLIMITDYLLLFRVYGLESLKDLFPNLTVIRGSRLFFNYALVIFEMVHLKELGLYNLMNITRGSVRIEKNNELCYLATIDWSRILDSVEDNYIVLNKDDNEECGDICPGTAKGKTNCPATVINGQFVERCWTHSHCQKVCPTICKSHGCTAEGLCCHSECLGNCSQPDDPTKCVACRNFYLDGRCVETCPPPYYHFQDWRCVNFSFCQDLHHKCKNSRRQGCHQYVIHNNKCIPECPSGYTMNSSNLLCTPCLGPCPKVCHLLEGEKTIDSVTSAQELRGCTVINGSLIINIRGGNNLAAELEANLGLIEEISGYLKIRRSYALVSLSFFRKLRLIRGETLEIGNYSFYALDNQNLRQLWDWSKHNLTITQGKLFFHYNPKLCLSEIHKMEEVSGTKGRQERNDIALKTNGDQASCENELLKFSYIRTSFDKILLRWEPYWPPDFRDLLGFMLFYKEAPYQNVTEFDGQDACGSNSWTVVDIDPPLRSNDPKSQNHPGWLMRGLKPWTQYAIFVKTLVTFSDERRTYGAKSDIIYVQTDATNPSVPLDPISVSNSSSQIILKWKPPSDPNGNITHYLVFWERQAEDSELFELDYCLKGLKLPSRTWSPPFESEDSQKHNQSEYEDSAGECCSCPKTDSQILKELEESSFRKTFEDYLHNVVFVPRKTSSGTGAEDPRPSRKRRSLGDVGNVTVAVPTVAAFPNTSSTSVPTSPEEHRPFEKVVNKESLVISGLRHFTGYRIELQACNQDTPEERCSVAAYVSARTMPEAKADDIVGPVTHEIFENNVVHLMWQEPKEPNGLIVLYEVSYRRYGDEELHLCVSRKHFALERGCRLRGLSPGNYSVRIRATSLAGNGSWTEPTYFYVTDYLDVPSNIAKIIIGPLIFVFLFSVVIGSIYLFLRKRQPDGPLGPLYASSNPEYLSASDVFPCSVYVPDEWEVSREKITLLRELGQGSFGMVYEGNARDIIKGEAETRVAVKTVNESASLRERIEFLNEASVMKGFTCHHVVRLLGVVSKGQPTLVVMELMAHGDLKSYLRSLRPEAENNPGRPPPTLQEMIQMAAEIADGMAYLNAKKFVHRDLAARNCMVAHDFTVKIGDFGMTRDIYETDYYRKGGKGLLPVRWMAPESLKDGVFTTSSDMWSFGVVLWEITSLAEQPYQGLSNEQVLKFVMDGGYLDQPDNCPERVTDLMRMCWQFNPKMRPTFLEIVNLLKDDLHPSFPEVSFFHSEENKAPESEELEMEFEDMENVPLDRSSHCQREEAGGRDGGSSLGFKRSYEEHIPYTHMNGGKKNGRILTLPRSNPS

FLT3 = target: T30, FLT3 (Homo sapiens, UniProt P36888); experiment: Millipore kinase panel; assay type: biochemical; conditions: read-out: % Control
T30 construct: purchased Millipore KinaseProfiler (kinases); Cerep (receptors and ion channels)

MET = target: T31, MET (Homo sapiens, UniProt P08581); experiment: Millipore kinase panel; assay type: biochemical; conditions: read-out: % Control
T31 construct: purchased Millipore KinaseProfiler (kinases); Cerep (receptors and ion channels)

PRK2 = target: T32, PRK2 (Homo sapiens, UniProt Q16513); experiment: Millipore kinase panel; assay type: biochemical; conditions: read-out: % Control
T32 construct: purchased Millipore KinaseProfiler (kinases); Cerep (receptors and ion channels)

HIPK3 = target: T33, HIPK3 (Homo sapiens, UniProt Q9H422); experiment: Millipore kinase panel; assay type: biochemical; conditions: read-out: % Control
T33 construct: purchased Millipore KinaseProfiler (kinases); Cerep (receptors and ion channels)
T33 sequence (Q9H422 whole entry): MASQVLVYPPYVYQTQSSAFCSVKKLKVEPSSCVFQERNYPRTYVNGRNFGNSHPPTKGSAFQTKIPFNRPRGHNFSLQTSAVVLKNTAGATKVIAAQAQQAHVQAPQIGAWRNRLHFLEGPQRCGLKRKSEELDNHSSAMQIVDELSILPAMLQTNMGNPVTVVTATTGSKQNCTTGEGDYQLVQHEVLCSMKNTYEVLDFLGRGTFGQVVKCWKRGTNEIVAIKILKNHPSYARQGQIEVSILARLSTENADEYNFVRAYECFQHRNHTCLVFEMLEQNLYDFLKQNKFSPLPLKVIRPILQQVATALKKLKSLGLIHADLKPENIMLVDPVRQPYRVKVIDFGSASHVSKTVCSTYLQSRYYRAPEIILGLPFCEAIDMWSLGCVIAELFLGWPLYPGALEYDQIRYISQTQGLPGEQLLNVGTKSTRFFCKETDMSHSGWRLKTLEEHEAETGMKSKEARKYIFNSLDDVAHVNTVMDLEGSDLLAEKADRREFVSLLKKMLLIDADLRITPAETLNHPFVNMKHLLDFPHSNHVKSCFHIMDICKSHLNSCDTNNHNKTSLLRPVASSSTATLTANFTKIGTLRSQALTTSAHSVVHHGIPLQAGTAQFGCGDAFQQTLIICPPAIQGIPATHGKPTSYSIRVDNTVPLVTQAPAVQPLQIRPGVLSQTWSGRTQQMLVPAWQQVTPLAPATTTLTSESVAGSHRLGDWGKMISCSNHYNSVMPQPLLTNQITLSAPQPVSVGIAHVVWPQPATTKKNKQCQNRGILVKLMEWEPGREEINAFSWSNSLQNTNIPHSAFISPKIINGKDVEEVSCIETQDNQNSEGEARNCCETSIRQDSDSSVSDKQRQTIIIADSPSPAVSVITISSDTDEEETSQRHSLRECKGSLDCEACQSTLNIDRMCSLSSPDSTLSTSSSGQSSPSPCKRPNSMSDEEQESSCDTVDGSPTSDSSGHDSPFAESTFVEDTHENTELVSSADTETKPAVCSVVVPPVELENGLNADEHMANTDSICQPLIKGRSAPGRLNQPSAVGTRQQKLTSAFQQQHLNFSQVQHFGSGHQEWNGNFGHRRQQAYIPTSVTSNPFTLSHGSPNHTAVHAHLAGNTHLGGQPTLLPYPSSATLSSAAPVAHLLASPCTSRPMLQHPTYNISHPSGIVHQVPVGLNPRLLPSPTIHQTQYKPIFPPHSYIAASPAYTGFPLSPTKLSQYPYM

NK3 (h) = target: T34, NK3 (h) (Homo sapiens, UniProt P29371); experiment: CEREP binding panel; conditions: antagonist radioligand, read-out: % Inhibition of Control Specific Binding
T34 construct: purchased Millipore KinaseProfiler (kinases); Cerep (receptors and ion channels)

TLK2 = target: T35, TLK2 (Homo sapiens, UniProt Q86UE8); experiment: Millipore kinase panel; assay type: biochemical; conditions: read-out: % Control
T35 construct: purchased Millipore KinaseProfiler (kinases); Cerep (receptors and ion channels)

RSK3 = target: T36, RSK3 (Homo sapiens, UniProt Q15349); experiment: Millipore kinase panel; assay type: biochemical; conditions: read-out: % Control
T36 construct: purchased Millipore KinaseProfiler (kinases); Cerep (receptors and ion channels)

EPHA1 = target: T37, EPHA1 (Homo sapiens, UniProt P21709); experiment: Millipore kinase panel; assay type: biochemical; conditions: read-out: % Control
T37 construct: purchased Millipore KinaseProfiler (kinases); Cerep (receptors and ion channels)

MST3 = target: T38, MST3 (Homo sapiens, UniProt Q9Y6E0); experiment: Millipore kinase panel; assay type: biochemical; conditions: read-out: % Control
T38 construct: purchased Millipore KinaseProfiler (kinases); Cerep (receptors and ion channels)

VPAC1 (VIP1) (h) = target: T39, VPAC1 (VIP1) (h) (Homo sapiens, UniProt P32241); experiment: CEREP binding panel; conditions: agonist radioligand, read-out: % Inhibition of Control Specific Binding
T39 construct: purchased Millipore KinaseProfiler (kinases); Cerep (receptors and ion channels)
T39 sequence (P32241 31-457): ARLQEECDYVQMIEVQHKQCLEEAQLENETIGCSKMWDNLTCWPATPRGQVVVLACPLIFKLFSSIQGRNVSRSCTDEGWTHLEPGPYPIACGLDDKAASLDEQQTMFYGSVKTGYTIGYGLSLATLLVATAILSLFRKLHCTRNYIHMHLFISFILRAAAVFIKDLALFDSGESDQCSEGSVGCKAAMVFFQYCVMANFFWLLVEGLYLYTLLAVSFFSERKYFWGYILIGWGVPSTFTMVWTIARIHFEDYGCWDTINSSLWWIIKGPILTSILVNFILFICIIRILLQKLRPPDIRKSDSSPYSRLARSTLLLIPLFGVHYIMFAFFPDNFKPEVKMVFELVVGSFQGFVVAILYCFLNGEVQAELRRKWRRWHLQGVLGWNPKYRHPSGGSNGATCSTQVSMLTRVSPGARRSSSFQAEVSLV

CDK2/CYCLINA = target: T40, CDK2/CYCLINA (Homo sapiens, UniProt P24941); experiment: Millipore kinase panel; assay type: biochemical; conditions: read-out: % Control
T40 construct: purchased Millipore KinaseProfiler (kinases); Cerep (receptors and ion channels)

SAPK2B = target: T41, SAPK2B (Homo sapiens, UniProt Q15759); experiment: Millipore kinase panel; assay type: biochemical; conditions: read-out: % Control
T41 construct: purchased Millipore KinaseProfiler (kinases); Cerep (receptors and ion channels)
T41 sequence (Q15759 whole entry): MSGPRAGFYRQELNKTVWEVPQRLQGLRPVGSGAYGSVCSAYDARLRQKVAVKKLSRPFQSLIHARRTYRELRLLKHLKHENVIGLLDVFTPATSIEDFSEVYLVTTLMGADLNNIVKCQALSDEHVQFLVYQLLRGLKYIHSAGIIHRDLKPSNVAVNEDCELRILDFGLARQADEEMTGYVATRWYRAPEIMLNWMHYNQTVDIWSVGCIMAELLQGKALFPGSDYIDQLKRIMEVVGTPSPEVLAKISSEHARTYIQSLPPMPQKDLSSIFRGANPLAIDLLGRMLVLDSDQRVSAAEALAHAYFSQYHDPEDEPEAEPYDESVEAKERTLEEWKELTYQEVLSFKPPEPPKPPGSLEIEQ

With `Cn1cc(-c2ccc(-c3cncc(Cl)c3N3CCC4(CCNC4=O)CC3)cc2)cn1` [Compound 74, 8-(3-Chloro-5-(4-(1-methyl-1H-pyrazol-4-yl)phenyl)pyridin-4-yl)-2,8-diazaspiro[4.5]decan-1-one] the remaining activity at 1 µM (JAK2) was 11%, the “% Inhibition of Control Specific Binding” value (KV channel) was -13% and the remaining activity at 1 µM (PLK1) was -4%. For the same compound, the remaining activity at 1 µM (TAO1) was -14%, the “% Control” value (PI3 KINASE (P110A/P85A)) was -1% and the inhibition at 10 µM (5-HT5a (h)) was 1%. The remaining activity at 1 µM (MAPKAP-K2) was 0%, the remaining activity at 1 µM (IRR) was 3% and the remaining activity at 1 µM (NEK2) was 6%. For the same compound, the remaining activity at 1 µM (MARK1) was 2%, the remaining activity at 1 µM (ARK5) was -2% and the remaining activity at 1 µM (ABL) was -5%. For the same compound, the remaining activity at 1 µM (FGFR3) was -4%, the inhibition at 10 µM (MC4 (h)) was 4% and the remaining activity at 1 µM (PDK1) was -12%. The remaining activity at 1 µM (BRK) was 11%, the remaining activity at 1 µM (PKCALPHA) was -5% and the remaining activity at 1 µM (PAK2) was -7%. It also gave a remaining activity at 1 µM (GRK6) of -1%, an inhibition at 10 µM (M2 (h)) of 38% and a remaining activity at 1 µM (CHK1) of -17%. For the same compound, the remaining activity at 1 µM (IRAK4) was -3%, the remaining activity at 1 µM (EPHB2) was 7% and the “% Control” value (BLK) was 0% and 6%. The remaining activity at 1 µM (SGK2) was -17%, the remaining activity at 1 µM (KDR) was 10% and the remaining activity at 1 µM (AXL) was -18%. The remaining activity at 1 µM (ZIPK) was 6%, the inhibition at 10 µM (GAL2 (h)) was 2% and the remaining activity at 1 µM (PIM-3) was 8%. It also gave a remaining activity at 1 µM (CSK) of 0%, a remaining activity at 1 µM (IR, ACTIVATED) of -4% and a remaining activity at 1 µM (FLT3) of -9%. The remaining activity at 1 µM (MET) was 3%, the remaining activity at 1 µM (PRK2) was 0% and the remaining activity at 1 µM (HIPK3) was -2%. For the same compound, the inhibition at 10 µM (NK3 (h)) was 4%, the remaining activity at 1 µM (TLK2) was -9% and the remaining activity at 1 µM (RSK3) was -5%. The remaining activity at 1 µM (EPHA1) was -2%, the remaining activity at 1 µM (MST3) was -7% and the inhibition at 10 µM (VPAC1 (VIP1) (h)) was 0%. For the same compound, the remaining activity at 1 µM (CDK2/CYCLINA) was -8% and the remaining activity at 1 µM (SAPK2B) was 0%.
